Reference: patent US20220169660A1, “CYCLIC AMINO-PYRAZINECARBOXAMIDE COMPOUNDS AND USES THEREOF” (SILVERBACK THERAPEUTICS, INC., priority 2019, published 2022)
pEC50: −log10 of the molar value.

Key:
[1] = system: HEK293 SMAD2p luciferase reporter cells transfected to stably express full length human LRRC15; assay: Cell reporter assay of anti-LRRC15 antibody drug conjugates (SMAD2p luciferase); type: cell-based; settings: linker-payload conjugated to anti-LRRC15 antibody; human TGFβ1 1.6 ng/ml; absolute EC50
Text: The linker payloads in Table 8 were covalently attached to an anti-LRRC15 antibody. The LRRC15 antibody is the murine M25 antibody or a humanized variant thereof (see PCT Application Publication No. WO 2017/095805, incorporated herein by reference in its entirety). Conjugation to the linker-payload is via the interchain disulfides. The antibodies have either a wild-type Fc domain or a null Fc domain. The Fcnull mutations for human IgG1 are L234A, L236A, G237A, and K322A and the Fcnull mutations for murine IgG2a are L234A, L236A, G237A, K322A, and P329G; numbering by EU index.
The resultant antibody drug conjugates were tested via a cell reporter assay. HEK293 SMAD2p luciferase reporter cells transfected to stably express full length human LRRC15 were seeded in 96 well plates at 40,000 cells/well in an assay media of MEM +0.5% FBS, 1% NEAA, 1% NaPyr & 1% Pen/Strep. Conjugates and controls were added to wells in a dose titration ranging from 500 nM to 0.03 nM. After 24 hours of culture at 37° C. in a 5% CO2 environment human TGFβ1 was added (PeproTech Inc.) to a final concentration of 1.6 ng/ml followed by an additional 18 hour of culture. Luciferase Steady Glo reagent (Promega Corporation) was added as recommended by manufacturer. After incubating 10 minutes with shaking, SMAD2p activity was determined by measuring luminescence with an Envision Plate Reader (Perkin-Elmer Inc.) and an absolute EC50 was determined using Prism Software v8.01 (GraphPad Inc.).

[2] = system: TGFβ/SMAD Singling Pathway SBE reporter cell line; assay: TGFβ reporter assay (in vitro small molecule screening); type: cell-based; settings: SBE luciferase reporter cells, TGFβ stimulation, 18 h, luminescence
Experimental: TGFβ/SMAD Singling Pathway SBE reporter cell line was obtained from BPS Bioscience. Cells were passed, expanded, and stored in liquid nitrogen as per the supplier's instructions with the exception that growth media is changed to DMEM-C with Geneticin (DMEM supplemented with 10% fetal bovine serum, 1×NEAA, 1 mM Pyruvate, 2 mM glutamine, 50 μg/mL penicillin, 50 U/mL streptomycin and 400 μg/mL of Geneticin). The assay media was MEM supplemented with […] fetal bovine serum, 1×NEAA, 1 mM Pyruvate, 50 μg/mL penicillin and 50 U/mL streptomycin.
Test samples (at desired concentrations diluted in assay media) were added to a 96-well assay plate, 20 μL per well. Reporter cells were harvested from the tissue culture flasks by incubation in small quantity of PBS at 37° C. for two minutes after the media in the flask is removed and cells rinsed with PBS. Cells were counted and diluted in the assay media at approximately 0.5×10^6 cells/mL and then 80 μL/well of cells were added to the assay plate containing the 20 μL/well of test samples (or media only), and incubated for approximately 5-6 hours at 37° C. in a 5% CO2 humidified incubator. After that time, 15 μL of TGFβ diluted to 12 ng/mL in the assay media was added to the plate. Controls included TGFβ titration (from 50 to 0 ng/mL) without inhibitors, and media only (without cells, inhibitor or TGFβ). Plates were incubated at 37° C. in a 5% CO2 humidified incubator for 18 h. Luciferase substrate solution is subsequently added at 100 μL per well, incubated in the dark at room temperature for 15 min, and luminescence is measured using a luminometer. EC50 values and curve fits were obtained using Prism (GraphPad Software).

TGFBR2 = molecular target: T1, TGFBR2 (Homo sapiens, UniProt P37173); assay: TGFBR2 RBC enzyme assay (Reaction Biology Corp.); type: biochemical
T1 construct: purchased Reaction Biology Corp
Experimental: Compounds of the disclosure were assayed by Reaction Biology Corp. using the TGFBR2 RBC enzyme assay.

T1 sequence (P37173 23-567): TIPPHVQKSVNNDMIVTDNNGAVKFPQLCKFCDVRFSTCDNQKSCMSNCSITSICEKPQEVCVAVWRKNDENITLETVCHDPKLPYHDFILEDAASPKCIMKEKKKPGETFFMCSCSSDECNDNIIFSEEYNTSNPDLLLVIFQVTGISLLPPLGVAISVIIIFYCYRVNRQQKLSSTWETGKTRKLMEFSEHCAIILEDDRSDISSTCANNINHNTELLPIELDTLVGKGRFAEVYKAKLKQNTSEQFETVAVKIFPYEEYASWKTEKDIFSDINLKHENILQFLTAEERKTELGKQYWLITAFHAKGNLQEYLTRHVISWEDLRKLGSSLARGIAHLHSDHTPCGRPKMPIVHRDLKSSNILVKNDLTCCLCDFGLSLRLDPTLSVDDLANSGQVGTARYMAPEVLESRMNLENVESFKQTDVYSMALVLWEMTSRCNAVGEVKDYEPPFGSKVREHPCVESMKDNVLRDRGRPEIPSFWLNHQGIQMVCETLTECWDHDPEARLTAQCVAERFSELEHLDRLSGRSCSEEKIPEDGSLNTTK

pEC50 [2]	pEC50 (TGFBR2)	Molecule	pEC50 [1]
		4-((S)-2-((S)-2-(6-(2,5-dioxo-2,5-dihydro-1H-pyrrol-1-yl)hexanamido)-3-methylbutanamido)-5-ureidopentanamido)benzyl (3-((2^5-amino-6-methyl-3-oxo-10-oxa-4,6-diaza-2(2,6)-pyrazina-5(3,4)-pyridina-1(1,3)-benzenacyclodecaphane-15-yl)oxy)propyl)carbamate [Compound B-16]	6.00 to 9.00
5.30 to 6.00	< 6.00	CN1C[C@@H](CN)Oc2ccccc2-c2cnc(N)c(n2)C(=O)Nc2cnccc21 [Compound 60, (R)-2^5-amino-8-(aminomethyl)-6-methyl-9-oxa-4,6-diaza-2(2,6)-pyrazina-5(3,4)-pyridina-1(1,2)-benzenacyclononaphan-3-one]	
6.00 to 9.00	7.00 to 9.00	CN1CCCOc2cc(ccc2OCCCN)-c2cnc(N)c(n2)C(=O)Nc2cnccc21 [Compound 61, 2^5-amino-1^4-(3-aminopropoxy)-6-methyl-10-oxa-4,6-diaza-2(2,6)-pyrazina-5(3,4)-pyridina-1(1,3)-benzenacyclodecaphan-3-one]	
6.00 to 9.00	7.00 to 9.00	CN1CCCOc2cc(ccc2CCCCN)-c2cnc(N)c(n2)C(=O)Nc2cnccc21 [Compound 62, 2^5-amino-1^4-(4-aminobutyl)-6-methyl-10-oxa-4,6-diaza-2(2,6)-pyrazin-5(3,4)-pyridina-1(1,3)-benzenacyclodecaphan-3-one]	
6.00 to 9.00	7.00 to 9.00	CN1CCCCc2cc(ccc2OCCCN)-c2cnc(N)c(n2)C(=O)Nc2cnccc21 [Compound 63, 2^5-amino-1^4-(3-aminopropxy)-6-methyl-4,6-diaza-2(2,6)-pyrazina-5(3,4)-pyridina-1(1,3)-benzenacyclodecaphan-3-one]	
6.00 to 9.00	7.00 to 9.00	CN1CCOc2ccc(OCCCN)cc2-c2cnc(N)c(n2)C(=O)Nc2cnccc21 [Compound 64, 2^5-amino-1^5-(3-aminopropoxy)-6-methyl-9-oxa-4,6-diaza-2(2,6)-pyrazina-5(3,4)-pyridina-1(1,2)-benzenacyclononaphan-3-one]	
6.00 to 9.00	7.00 to 9.00	CN1CCOc2cc(OCCCN)ccc2-c2cnc(N)c(n2)C(=O)Nc2cnccc21 [Compound 65, 2^5-amino-1^4-(3-aminopropoxy)-6-methyl-9-oxa-4,6-diaza-2(2,6)-pyrazina-5(3,4)-pyridina-1(1,2)-benzenacyclononaphan-3-one]	
		CC(C)[C@H](NC(=O)CCOCCOCCOCCOCCN1C(=O)C=CC1=O)C(=O)N[C@@H](CCCNC(N)=O)C(=O)Nc1ccc(COC(=O)NCCCOc2ccc3cc2OCCCN(C)c2ccncc2NC(=O)c2nc-3cnc2N)cc1 [Compound B-61]	6.00 to 9.00
		CC(C)[C@H](NC(=O)CCOCCOCCOCCOCCN1C(=O)C=CC1=O)C(=O)N[C@@H](CCCNC(N)=O)C(=O)Nc1ccc(COC(=O)NCCCCc2ccc3cc2CCCCN(C)c2ccncc2NC(=O)c2nc-3cnc2N)cc1 [Compound B-62]	6.00 to 9.00
		CC(C)[C@H](NC(=O)CCOCCOCCOCCOCCN1C(=O)C=CC1=O)C(=O)N[C@@H](CCCNC(N)=O)C(=O)Nc1ccc(COC(=O)NCCCOc2ccc3cc2CCCCN(C)c2ccncc2NC(=O)c2nc-3cnc2N)cc1 [Compound B-63]	6.00 to 9.00
		CC(C)[C@H](NC(=O)CCOCCOCCOCCOCCN1C(=O)C=CC1=O)C(=O)N[C@@H](CCCNC(N)=O)C(=O)Nc1ccc(COC(=O)NCCCOc2ccc3c(c2)-c2cnc(N)c(n2)C(=O)Nc2cnccc2N(C)CCO3)cc1 [Compound B-64]	6.00 to 9.00
		CC(C)[C@H](NC(=O)CCOCCOCCOCCOCCN1C(=O)C=CC1=O)C(=O)N[C@@H](CCCNC(N)=O)C(=O)Nc1ccc(COC(=O)NCCCOc2ccc3c(c2)OCCN(C)c2ccncc2NC(=O)c2nc-3cnc2N)cc1 [Compound B-65]	6.00 to 9.00
